{"source": "patent US20100173918A1", "about": "“METHODS AND COMPOSITIONS FOR DETERMINING THE EFFICACY OF BREAST CANCER THERAPEUTICS” (TARGETED MOLECULAR DIAGNOSTICS, LLC, priority 2007, published 2010)", "key": {"[1]": {"test_system": "patients with IBC (inflammatory breast cancer)", "assay": "EGF103009 open-label study of lapatinib monotherapy: clinical response (skin criteria / RECIST) and progression-free survival", "assay_type": "in vivo, human", "set-up": "key to RECIST Response: CR: complete response; PR: partial response; SD: stable disease", "conditions": "for RECIST Response / Skin Response: individual patient, lapatinib 1,500 mg once daily", "description": "Patients: Eligible adults (18 years of age) had histologically confirmed IBC (Inflammatory breast cancer) and a clinical diagnosis of IBC (e.g., presence of diffuse erythema and edema [peau d'orange], with or without an underlying palpable mass, involving the majority of the skin of the breast). Pathologic evidence of dermal lymphatic invasion was not required. […] EGF103009 was approved by the institutional review board from each participating institution, and written informed consent was obtained from all patients.\nTumor biomarkers were analyzed in a blinded manner at a central Clinical Laboratory Improvement Amendments—certified College of American Pathology reference laboratory (Targeted Molecular Diagnostics, Westmont, Ill.) (Spector N. L., et al., J Clin Oncol 23:2502-2512 (2005)). […] The study design consisted of two stages; two responses were required in the first fifteen patients in either cohort before an additional fifteen patients were enrolled in that cohort (Green-Dahlberg design).\nPatients underwent regular physical examinations and evaluations of performance status, body weight, CBC, serum chemistry, left ventricular ejection fraction by multiple gated acquisition scan or echocardiogram, and if applicable, digital photography to evaluate changes in chest wall/[…] disease or assessment by imaging studies, computed tomography scan or magnetic resonance imaging.\nEfficacy and Safety Evaluation: Clinical response was assessed at 4-week intervals and imaging performed at 8-week intervals until disease progression or withdrawal from study. […] Toxicity was graded according to the National Cancer Institute Common Terminology Criteria (NC1-CTCAE), version 3.0.\nStatistical Analysis: The statistical focus of the study was to test the null hypothesis that the overall response rate (ORR) is no more than 15% versus the alternative hypothesis that this rate is at least 40%. Each cohort consisted of two stages, such that if there were fewer than two responses at the end of stage 1 (15 patients), then the cohort would be closed in favor of the null hypothesis. […] Kaplan-Meier estimates of progression-free survival ([…]) were computed separately for cohort A and B. For this exploratory analysis, there were no statistical comparisons made between cohorts."}, "[2]": {"assay": "EGF103009 study of lapatinib monotherapy: safety / adverse events", "assay_type": "in vivo, human"}, "[3]": {"conditions": "Cohort A (HER-2 overexpressing IBC)"}, "[4]": {"conditions": "Cohort B (EGFR expression without HER-2 overexpression)"}, "[5]": {"conditions": "N = 45, >20% decrease in LVEF, asymptomatic and/or below lower limit of normal"}, "[6]": {"conditions": "N = 45, mostly musculoskeletal pain (76% of cases)"}, "[7]": {"conditions": "N = 45, one report of rash was not graded"}}, "note": "Where “and” joins values, the source holds several entries; their conditions need not be identical. Identical values can stand only once."}
{"smiles": "CS(=O)(=O)CCNCc1ccc(-c2ccc3ncnc(Nc4ccc(OCc5cccc(F)c5)c(Cl)c4)c3c2)o1", "note": "[lapatinib, Lapatinib ditosylate]", "values": [{"measurement": "time by which all responses in the skin occurred (first assessment)", "setting": "[1]; cohort A", "value": "≤ 4", "unit": "week"}, {"measurement": "patients with response to lapatinib among those who received prior trastuzumab therapy", "setting": "[1]; cohort A, 15 patients with prior trastuzumab", "value": "six"}, {"measurement": "patients who experienced response", "setting": "[1]; cohort A, HER-2+ IBC, n = 30", "value": "15 of 30"}, {"measurement": "patients whose best clinical response was a CR in chest wall/skin or RECIST-measurable lesions", "setting": "[1]; cohort A, n = 30", "value": 7, "unit": "%"}, {"measurement": "patients with a PR in chest wall/skin and/or RECIST-measurable lesions as best response", "setting": "[1]; cohort A, n = 30", "value": 43, "unit": "%"}, {"measurement": "patients who responded", "setting": "[1]; cohort A, tumors coexpressing pHER-2 and pHER-3", "value": "nine of 10"}, {"measurement": "patients who responded", "setting": "[1]; cohort A, tumors not coexpressing pHER-2 and pHER-3", "value": "four of 14"}, {"measurement": "median PFS", "setting": "[1]; cohort A, median follow-up 15.3 weeks", "value": 14, "unit": "weeks"}, {"measurement": "patients with a clinical response (PR in skin/chest disease)", "setting": "[1]; cohort B, n = 15", "value": "one of 15"}, {"measurement": "median PFS", "setting": "[1]; cohort B, median follow-up 4.1 weeks", "value": 4, "unit": "weeks"}, {"measurement": "RECIST Response", "setting": "[1]; [3]", "value": "PR* (4×) and PR (3×) and SD (7×)"}, {"measurement": "Skin Response", "setting": "[1]; [3]", "value": "PR (more than 50% decrease in extent of skin disease from baseline documented by digital photography)"}, {"measurement": "RECIST Response", "setting": "[1]; [4]", "value": "SD"}, {"measurement": "Skin Response", "setting": "[1]; [4]", "value": "PR (more than 50% decrease in extent of skin disease from baseline documented by digital photography)"}, {"measurement": "Anemia, Grade > 3 %", "setting": "[2]; N = 45", "value": 4, "unit": "%"}, {"measurement": "Anemia, Grade > 3 No.", "setting": "[2]; N = 45", "value": 2}, {"measurement": "Anemia, Total %", "setting": "[2]; N = 45", "value": 7, "unit": "%"}, {"measurement": "Anemia, Total No. of Patients", "setting": "[2]; N = 45", "value": 3}, {"measurement": "Anorexia, Grade > 3 %", "setting": "[2]; N = 45", "value": 2, "unit": "%"}, {"measurement": "Anorexia, Grade > 3 No.", "setting": "[2]; N = 45", "value": 1}, {"measurement": "Anorexia, Total %", "setting": "[2]; N = 45", "value": 22, "unit": "%"}, {"measurement": "Anorexia, Total No. of Patients", "setting": "[2]; N = 45", "value": 10}, {"measurement": "Constipation, Grade > 3 %", "setting": "[2]; N = 45", "value": 0, "unit": "%"}, {"measurement": "Constipation, Grade > 3 No.", "setting": "[2]; N = 45", "value": 0}, {"measurement": "Constipation, Total %", "setting": "[2]; N = 45", "value": 7, "unit": "%"}, {"measurement": "Constipation, Total No. of Patients", "setting": "[2]; N = 45", "value": 3}, {"measurement": "Decreased LVEF, Grade > 3 %", "setting": "[2]; N = 45", "value": 0, "unit": "%"}, {"measurement": "Decreased LVEF, Grade > 3 No.", "setting": "[2]; N = 45", "value": 0}, {"measurement": "Diarrhea, Grade > 3 %", "setting": "[2]; N = 45", "value": 11, "unit": "%"}, {"measurement": "Diarrhea, Grade > 3 No.", "setting": "[2]; N = 45", "value": 5}, {"measurement": "Diarrhea, Total %", "setting": "[2]; N = 45", "value": 60, "unit": "%"}, {"measurement": "Diarrhea, Total No. of Patients", "setting": "[2]; N = 45", "value": 27}, {"measurement": "Dyspnea, Grade > 3 %", "setting": "[2]; N = 45", "value": 11, "unit": "%"}, {"measurement": "Dyspnea, Grade > 3 No.", "setting": "[2]; N = 45", "value": 5}, {"measurement": "Dyspnea, Total %", "setting": "[2]; N = 45", "value": 20, "unit": "%"}, {"measurement": "Dyspnea, Total No. of Patients", "setting": "[2]; N = 45", "value": 9}, {"measurement": "Edema, Grade > 3 %", "setting": "[2]; N = 45", "value": 2, "unit": "%"}, {"measurement": "Edema, Grade > 3 No.", "setting": "[2]; N = 45", "value": 1}, {"measurement": "Edema, Total %", "setting": "[2]; N = 45", "value": 13, "unit": "%"}, {"measurement": "Edema, Total No. of Patients", "setting": "[2]; N = 45", "value": 6}, {"measurement": "Elevated ALT/AST, Grade > 3 %", "setting": "[2]; N = 45", "value": 4, "unit": "%"}, {"measurement": "Elevated ALT/AST, Grade > 3 No.", "setting": "[2]; N = 45", "value": 2}, {"measurement": "Elevated ALT/AST, Total %", "setting": "[2]; N = 45", "value": 7, "unit": "%"}, {"measurement": "Elevated ALT/AST, Total No. of Patients", "setting": "[2]; N = 45", "value": 3}, {"measurement": "Elevated alkaline phosphatase, Grade > 3 %", "setting": "[2]; N = 45", "value": 0, "unit": "%"}, {"measurement": "Elevated alkaline phosphatase, Grade > 3 No.", "setting": "[2]; N = 45", "value": 0}, {"measurement": "Elevated alkaline phosphatase, Total %", "setting": "[2]; N = 45", "value": 9, "unit": "%"}, {"measurement": "Elevated alkaline phosphatase, Total No. of Patients", "setting": "[2]; N = 45", "value": 4}, {"measurement": "Fatigue, Grade > 3 %", "setting": "[2]; N = 45", "value": 0, "unit": "%"}, {"measurement": "Fatigue, Grade > 3 No.", "setting": "[2]; N = 45", "value": 0}, {"measurement": "Fatigue, Total %", "setting": "[2]; N = 45", "value": 24, "unit": "%"}, {"measurement": "Fatigue, Total No. of Patients", "setting": "[2]; N = 45", "value": 11}, {"measurement": "Hyperbilirubinemia, Grade > 3 %", "setting": "[2]; N = 45", "value": 2, "unit": "%"}, {"measurement": "Hyperbilirubinemia, Grade > 3 No.", "setting": "[2]; N = 45", "value": 1}, {"measurement": "Hyperbilirubinemia, Total %", "setting": "[2]; N = 45", "value": 9, "unit": "%"}, {"measurement": "Hyperbilirubinemia, Total No. of Patients", "setting": "[2]; N = 45", "value": 4}, {"measurement": "Infection, Grade > 3 %", "setting": "[2]; N = 45", "value": 4, "unit": "%"}, {"measurement": "Infection, Grade > 3 No.", "setting": "[2]; N = 45", "value": 2}, {"measurement": "Infection, Total %", "setting": "[2]; N = 45", "value": 13, "unit": "%"}, {"measurement": "Infection, Total No. of Patients", "setting": "[2]; N = 45", "value": 6}, {"measurement": "Nausea, Grade > 3 %", "setting": "[2]; N = 45", "value": 0, "unit": "%"}, {"measurement": "Nausea, Grade > 3 No.", "setting": "[2]; N = 45", "value": 0}, {"measurement": "Nausea, Total %", "setting": "[2]; N = 45", "value": 24, "unit": "%"}, {"measurement": "Nausea, Total No. of Patients", "setting": "[2]; N = 45", "value": 11}, {"measurement": "Pain, Grade > 3 %", "setting": "[2]; N = 45", "value": 16, "unit": "%"}, {"measurement": "Pain, Grade > 3 No.", "setting": "[2]; N = 45", "value": 7}, {"measurement": "Pleural effusion, Grade > 3 %", "setting": "[2]; N = 45", "value": 9, "unit": "%"}, {"measurement": "Pleural effusion, Grade > 3 No.", "setting": "[2]; N = 45", "value": 4}, {"measurement": "Pleural effusion, Total %", "setting": "[2]; N = 45", "value": 11, "unit": "%"}, {"measurement": "Pleural effusion, Total No. of Patients", "setting": "[2]; N = 45", "value": 5}, {"measurement": "Pruritus, Grade > 3 %", "setting": "[2]; N = 45", "value": 0, "unit": "%"}, {"measurement": "Pruritus, Grade > 3 No.", "setting": "[2]; N = 45", "value": 0}, {"measurement": "Pruritus, Total %", "setting": "[2]; N = 45", "value": 11, "unit": "%"}, {"measurement": "Pruritus, Total No. of Patients", "setting": "[2]; N = 45", "value": 5}, {"measurement": "Rash, Grade > 3 %", "setting": "[2]; N = 45", "value": 0, "unit": "%"}, {"measurement": "Rash, Grade > 3 No.", "setting": "[2]; N = 45", "value": 0}, {"measurement": "Vomiting, Grade > 3 %", "setting": "[2]; N = 45", "value": 0, "unit": "%"}, {"measurement": "Vomiting, Grade > 3 No.", "setting": "[2]; N = 45", "value": 0}, {"measurement": "Vomiting, Total %", "setting": "[2]; N = 45", "value": 20, "unit": "%"}, {"measurement": "Vomiting, Total No. of Patients", "setting": "[2]; N = 45", "value": 9}, {"measurement": "grade ½ diarrhea", "setting": "[2]; N = 45", "value": 49, "unit": "%"}, {"measurement": "grade ½ musculoskeletal pain", "setting": "[2]; N = 45", "value": 42, "unit": "%"}, {"measurement": "grade ½ skin rash", "setting": "[2]; N = 45", "value": 36, "unit": "%"}, {"measurement": "Decreased LVEF, Total %", "setting": "[2]; [5]", "value": 7, "unit": "%"}, {"measurement": "Decreased LVEF, Total No. of Patients", "setting": "[2]; [5]", "value": 3}, {"measurement": "Pain, Total %", "setting": "[2]; [6]", "value": 58, "unit": "%"}, {"measurement": "Pain, Total No. of Patients", "setting": "[2]; [6]", "value": 26}, {"measurement": "Rash, Total %", "setting": "[2]; [7]", "value": 36, "unit": "%"}, {"measurement": "Rash, Total No. of Patients", "setting": "[2]; [7]", "value": 16}, {"measurement": "tolerability of lapatinib monotherapy", "setting": "[2]; both cohorts", "value": "generally well tolerated"}]}
